From the OPERA property sets (Mansouri et al. 2018)
Non-standard residues stand in square brackets, D forms with d. Residues, ends and D or L forms follow the SMILES beside them.

SMILES	logP
CCOC(=O)c1cnc2n(c1=O)CCCC2	0.15
O=C(O)COc1ccc(Oc2ccc(Cl)cc2Cl)cc1	4.51
CC(=O)n1cc(CC(NC(=O)CC2NC(=O)C3C4CCC(CC4)N3C2=O)C(=O)NC(Cc2ccccc2)C(=O)N(C)Cc2ccccc2)c2ccccc21 (stereo not drawn)	3.69
CC(C)c1ccc(OCC(OC(=S)n2ccnc2)C(C)(C)C)cc1 (stereo not drawn)	5.21
O=C(O)COc1ccccc1[N+](=O)[O-]	1.13
Cc1cc(O)ccc1O	0.91
CCCCCCNC(=O)n1cc(F)c(=O)[nH]c1=O	2.63
CCCOC(=O)n1c(NC(=O)OC)nc2cc(C(=O)c3ccccc3)ccc21	3.43
CCOC(=O)C1(c2ccccc2)CCN(CCC(O)c2ccccc2)CC1 (stereo not drawn)	4.04
C=C1C(=O)OC2C1C(O)CC(C)C1CCC(=O)C12C (stereo not drawn)	0.23
CCC(C(=O)OCCc1ccccc1)C(CO)Cc1cncn1C (stereo not drawn)	2.31
Clc1ccccc1	2.84
CCCCCO	1.51
COc1ccc(-c2nc3ncc(N)cc3[nH]2)c(OC)c1	1.62
O=c1[nH]c2cc(Cl)ccc2n1C1CCN(CCCC(c2ccc(F)cc2)c2ccc(F)cc2)CC1	7.1
CCc1c(O)c(=O)ccn1CCOC	0.04
OC(Cn1ccnc1)(c1ccc(F)cc1)c1ccc(F)cc1	2.95
O=C(NN1CC=CCC1)C1CC1	1.12
Cc1c(F)c(F)c(C(=O)O)c(F)c1F	3.15
CC(=O)NC(CO)C(N)=O (stereo not drawn)	-1.87
CC(=O)c1ccc2c(c1)N(CCCN1CCN(CCO)CC1)c1ccccc1S2	2.62
Cc1cc(OCC(=O)O)ccc1S(C)(=O)=O	0.54
CCOCCOCCOP(=O)(N1CC1)N1CC1	0.1
CCOP(=O)(O)Cc1ccc(F)cc1	1.25

SMILES	logP
CC1OC(=O)C(C)C(O)C1C (stereo not drawn)	0.36
CC(O)Cn1cnc2c1c(=O)n(C)c(=O)n2C (stereo not drawn)	-0.77
COc1ccc2c(=O)c(C)c(-c3ccccc3)oc2c1CN(C)C	3.65
CNC(=C[N+](=O)[O-])NCCSCc1nc[nH]c1C	-0.4
CNc1cnn(-c2ccccc2)c(=O)c1Cl	1.19
CCC1(c2ccccc2)C(=O)NC(=O)N1S(=O)(=O)c1ccccc1 (stereo not drawn)	2.44
NS(=O)(=O)c1cc2c(cc1C(F)(F)C(F)(F)F)N=CNS2(=O)=O	1.05
O=C1CC2(CCCC2)C(=O)N1O	-0.26
CNC(=O)NC(=O)C(C)(C(=O)OC)C1C=CCCC1 (stereo not drawn)	1.75
Cc1cccc(C)c1C(=O)CCN1CCCCC1	3.53
CCCCCCC(=O)N(C)c1ccc(S(=O)(=O)N(C)C)cc1	2.61
CC(=O)Nc1n[nH]c(C)cc1=O	-0.89
O=C(O)Cc1ccc(C2CCCCC2)cc1	3.91
CN(C)C(=O)c1cccc(Oc2ccccc2)c1	2.57
COc1ccc2cc(C(C)C(=O)OCC=C(C)CCC=C(C)C)ccc2c1 (stereo not drawn)	7.77
CCCCCCCCOc1ccc(NC(=O)OCCN2CCOCC2)cc1	4.8
CCC(CC)(C(=O)NC(N)=O)C(=O)OCC(=O)OC	0.99
CNC12CC=CCC1c1ccccc1C2 (stereo not drawn)	3.28
CCc1c(O)c(=O)ccn1CC	0.25
Nc1cc(Cl)c(Cl)c(Cl)c1Cl	4.27
CC(C)C1NC(=O)NC1=O (stereo not drawn)	-0.36
CCc1ccc(OCC(OC(=O)n2ccnc2)C(C)(C)C)cc1 (stereo not drawn)	4.1
CN1CC(C)(C)C(=O)c2ccccc21	2.72
CN(C)CC/C=C1\c2ccccc2COc2ccccc21	4.29

SMILES	logP
CCNP(=O)(OCC)ON=C(C#N)c1ccc([N+](=O)[O-])cc1 (stereo not drawn)	1.76
CCc1cc2n(c1C(=O)c1ccc(F)cc1)CCC2C(=O)O (stereo not drawn)	3.63
CC(=O)OC(CNC(C)C)COc1cccc2ccccc12 (stereo not drawn)	4.34
O=C(OCn1c(=O)[nH]cc(F)c1=O)Oc1ccccc1	1.11
NS(=O)(=O)c1cc2c(cc1Cl)N=C(Cc1ccccc1)NS2(=O)=O	1.7
Nc1cc(Cl)ccc1Cl	2.75
COC(=O)n1cc(CC(NC(=O)CC2NC(=O)C3C4CCC(CC4)N3C2=O)C(=O)NC(Cc2ccccc2)C(=O)N(C)Cc2ccccc2)c2ccccc21 (stereo not drawn)	4.05
CN(C)CCN1C(=O)c2ccccc2Nc2cc(Cl)ccc21	3.73
NNC(=O)c1ccc2c(c1)OCO2	1.16
Cc1ncc(OP(=O)(O)O)c(CO)c1O	-0.64
Nc1nc(NCC(O)CO)c(Cl)nc1[N+](=O)[O-] (stereo not drawn)	-0.22
CCCCN(C)C(=O)c1cccc(Oc2ccccc2)c1	3.89
CCCCCCCCn1ccc(=O)c(O)c1C	2.88
CN(C)C=C1OC(=O)C(C#N)=C1c1ccccc1	1.07
CN(C)C(=O)Nc1ccc(Oc2nnnn2C2CCCCC2)cc1	2.18
CCN1Cn2c(nc3ccccc3c2=O)C1C (stereo not drawn)	1.02
O=C(Nc1ccn(C2CC(O)C(CO)O2)c(=O)n1)c1ccccc1 (stereo not drawn)	0.67
O=C(O)c1cccc(Cl)n1	1.5
CCn1cc(C(=O)O)c(=O)c2cc(F)c(N3CCN(C)CC3)c(F)c21	0.3
CCC(CC)(C(=O)NC(N)=O)C(=O)OC(C)C	1.99
CCCCC(=O)OC[C@H]1O[C@@H](n2cc(I)c(=O)[nH]c2=O)C[C@@H]1O	1.44
C=C1C(=O)OC2CC3=CC(CC4(C)OC4C(O)C12)OC3=O (stereo not drawn)	-0.64
O=C(Cc1nc(I)c([N+](=O)[O-])[nH]1)NCc1cccnc1	0.88
N=C(N)N1CCc2ccccc2C1	0.75

SMILES	logP
N=C(NCC#CCC(NC(=O)C(Cc1ccc2ccccc2c1)Cc1cccc2ccccc12)C(=O)NC(CC1CCCCC1)C(O)CC(=O)NCCN1CCOCC1)N[N+](=O)[O-] (stereo not drawn)	4.73
CCC(C(=O)OCc1ccc(Cl)cc1)C(CO)Cc1cncn1C (stereo not drawn)	2.69
CCCCSC(=Nc1cccnc1)SCc1ccc(C(C)(C)C)cc1	7
Cc1ccc(C)c(C(=O)NS(=O)(=O)c2ccc(N)cc2)c1	2.19
CCC(C(=O)OCc1ccccc1C)C(CO)Cc1cncn1C (stereo not drawn)	2.42
CC(=O)N[C@H](Cc1ccccc1)C(=O)N[C@H](Cc1ccccc1)C(N)=O (Ac-[dF]-[dF]-NH2)	1.19
CCOP(=O)(O)Cc1ccc(S(C)(=O)=O)cc1	-0.4
COP(=S)(OC)Oc1cc(Cl)c(Cl)cc1Cl	4.88
CCNc1nc(C)c(C(=O)CCN(CC)CC)s1	2.72
CC(=O)c1ccc2cc(C(C)C(=O)OCC(N)=O)ccc2c1 (stereo not drawn)	2.06
CCN(CC)C(=O)CCn1ccc(=O)c(O)c1C	-0.36
CN(C)CCN(Cc1cccs1)c1ccccn1	2.87
Clc1cccc(-c2cc(Cl)cc(Cl)c2)c1	5.81
CCCCN(C)N=Nc1ccc(C(N)=O)cc1	2.46
CC(C)Oc1ccc(OCC(OC(=O)n2ccnc2)C(C)(C)C)cc1 (stereo not drawn)	4.08
CC(C)(C)C(COc1ccc(F)cc1)OC(=S)n1ccnc1 (stereo not drawn)	4.37
CC(=O)O[C@H]1[C@@H](OC(C)=O)C[C@H](O[C@@H]2C(C)O[C@@H](O[C@H]3[C@@H](OC(C)=O)C[C@H](O[C@H]4CC[C@@]5(C)[C@H](CC[C@@H]6[C@@H]5CC[C@]5(C)[C@@H](C7=CC(=O)OC7)[C@@H](OC(C)=O)C[C@]65O)C4)O[C@@H]3C)C[C@@H]2OC(C)=O)O[C@@H]1C (stereo partly drawn)	3.46
COc1cc(C(N)=O)ccc1-c1nc2ccncc2[nH]1	1.18
CCCCCCC(=O)O	2.42
Cc1ccc(C(=O)C(C)CN2CCCCC2)cc1 (stereo not drawn)	3.65
CCOC(=O)c1ccc(OCC(OC(=O)n2ccnc2)C(C)(C)C)cc1 (stereo not drawn)	4.12
